Experimental data taken from patent publication US9353089B2, “Compositions and methods for the treatment of malaria” (Saint Louis University, priority 2013, dated 2016).
Read-outs that look alike come from different tables or passages of the source.

Key:
[1] = biological target: Plasmepsin-2 (PM-2; Plm II) (Plasmodium falciparum (isolate HB3), UniProt P46925); experiment: Plasmepsin-2 enzyme inhibition assay; format: biochemical; conditions: read-out: PM-2 IC50
Description: Plasmepsin-2 (PM-2; Plm II) and Plasmepsin (PM-4; Plm IV) expression and purification was performed following the published protocols (Istvan E S and Goldberg D E, 2005). The final purified protein was activated by diluting the protein to 0.3 mg/mL in activating buffer (0.1 M citrate pH 4.5, 0.1% Tween-20, 50 mM dithiothreitol) and incubated at room temperature for 40 min, then the activated enzyme was diluted in assay buffer (50 mM sodium acetate pH 4.7, 0.01% Tween-20). The enzymatic inhibition reaction was performed in 384 well plates with a total volume of 20 μl. 10 μl of diluted PM-2 or PM-4 enzyme was added to the 384-well plate except blank wells (blank wells add 10 μL of assay buffer) and 20 nL of serials of diluted 1000× compounds were added to the wells with 520 Echo® Liquid Handling System (Labcyte Inc.). 10 μL PM-2 peptide substrate (AnaSpec, Cat#, 62050) with assay buffer was then added to final concentration of 20 μM to start the reaction. After incubation the reaction at room temperature for 60 min, the fluorescence intensity at Ex/Em=360 nm/535 nm was measured using EnVision multilabel plate reader (Perkin-Elmer). The IC50 values were obtained using Graph Pad Prism 4 and are reported in Tables 8 and 9 below as PM-2 IC50 values.

[2] = tested on: Plasmodium falciparum 3D7 (CQ-sensitive); experiment: In vitro antimalarial assay (malaria SYBR Green I-based fluorescence, MSF), 3D7; format: cell-based
Description: Stock solutions of each test drug were prepared in DMSO at a concentration of 20 mM. The drug solutions were serially diluted with culture medium and distributed to asynchronous parasite cultures on 96-well plates in quadruplicate in a total volume of 100 μL to achieve 0.5% parasitemia with a 2% hematocrit in a total volume of 100 pt. […] After incubation, 100 μL of lysis buffer with 0.2 μL/mL SYBR Green I was added to each well.
Antimalarial potency of compounds was determined by this technique for both Plasmodium falciparum 3D7 (CQ-sensitive) and Dd2 (multi-drug resistant) strains.

[3] = 3D7, Table 13, read-out: 3D7 IC50
[4] = 3D7, Table 11, read-out: Pf 3D7 IC50
[5] = 3D7, Table 12, read-out: 3D7 IC50
[6] = 3D7, Table 10, read-out: Pf3D7 IC50

Sequence of Plasmepsin-2 (PM-2; Plm II) (P46925 125-453 limits assumed): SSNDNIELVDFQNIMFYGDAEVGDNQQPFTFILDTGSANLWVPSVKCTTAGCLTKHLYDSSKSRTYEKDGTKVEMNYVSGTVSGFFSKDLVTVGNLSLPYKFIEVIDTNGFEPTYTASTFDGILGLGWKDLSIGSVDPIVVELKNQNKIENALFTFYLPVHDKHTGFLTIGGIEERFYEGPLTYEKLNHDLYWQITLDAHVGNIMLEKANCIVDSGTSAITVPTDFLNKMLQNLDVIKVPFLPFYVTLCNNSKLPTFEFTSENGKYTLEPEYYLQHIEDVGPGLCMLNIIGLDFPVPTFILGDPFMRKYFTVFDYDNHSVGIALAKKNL

Row | SMILES | IC50 ([1]; Table 13) | IC50 [2, 3] | IC50 [2, 4] | IC50 ([1]; Table 12) | IC50 [2, 5] | IC50 [2, 6]
1 | N=C1NC(c2ccccc2)(c2cccc(-c3ccncc3)c2)C(=O)N1C1CCCCC1 (centres unmarked) [Example 211, 3-cyclohexyl-2-imino-5-phenyl-5-[3-(pyridin-4-yl)phenyl]-imidazolidin-4-one] | 14.1 nM | 1030 nM | – | – | – | –
2 | CCOc1ccc(C2(c3ccc(OCC)cc3)NC(=N)N(C3CCCCC3)C2=O)cc1 [Example 157, 3-cyclohexyl-5,5-bis(4-ethoxyphenyl)-2-iminoimidazolidin-4-one] | 6.87 nM | 466 nM | 466 nM | – | – | –
3 | COc1ccc(C2(c3ccc(OC)cc3)NC(=N)N(Cc3ccncc3)C2=O)cc1 [Example 203, 2-imino-5,5-bis(4-methoxyphenyl)-3-(pyridin-4-ylmethyl)-imidazolidin-4-one] | 14.9 nM | 1130 nM | – | – | – | –
4 | COc1cccc(-c2cccc(C3(c4ccccc4)NC(=N)N(C)C3=O)c2)c1 (centres unmarked) [Example 327, 2-imino-5-[3-(3-methoxyphenyl)phenyl]-3-methyl-5-phenyl-imidazolidin-4-one] | – | – | – | 240 nM | 4970 nM | –
5 | COc1cccc(C2(c3cccc(-c4cccnc4)c3)NC(=N)N(C3CCCCC3)C2=O)c1 (centres unmarked) [Example 214, 3-cyclohexyl-2-imino-5-(3-methoxyphenyl)-5-[3-(pyridin-3-yl)phenyl]-imidazolidin-4-one] | 12 nM | 787 nM | 787 nM | – | – | –
6 | COc1ccc(C2(c3ccc(OC)cc3)NC(=N)N(Cc3ccccc3C(F)(F)F)C2=O)cc1 [Example 304, 2-imino-5,5-bis(4-methoxyphenyl)-3-{[2-(trifluoromethyl)-phenyl]methyl}-imidazolidin-4-one] | 1.88 nM | 1340 nM | – | – | – | –
7 | N=C1NC(c2ccccc2Cl)(c2ccccc2Cl)C(=O)N1C1CCCCC1 [Example 202, 5,5-bis(2-chlorophenyl)-3-cyclohexyl-2-iminoimidazolidin-4-one] | 6750 nM | 349 nM | – | – | – | –
8 | COc1ccc(C2(c3ccc(OC)cc3)NC(=N)N(Cc3ccccc3OC)C2=O)cc1 [Example 248, 2-imino-5,5-bis(4-methoxyphenyl)-3-[(2-methoxyphenyl)-methyl]imidazolidin-4-one] | 28 nM | 294 nM | – | – | – | –
9 | COc1cccc(-c2cccc(C3(C4CC4)NC(=N)N(C)C3=O)c2)c1 (centres unmarked) [Example 330, 5-cyclopropyl-2-imino-5-[3-(3-methoxyphenyl)-phenyl]-3-methyl-imidazolidin-4-one] | – | – | – | 751 nM | ~2400 nM | –
10 | N=C1NC(c2ccccc2)(c2ccccc2)C(=O)N1C1CCOCC1 [Example 198, 2-imino-3-(oxan-4-yl)-5,5-diphenyl-imidazolidin-4-one] | 118 nM | > 2500 nM | – | – | – | –
11 | N=C1NC(c2ccc(OC(F)(F)F)cc2)(c2ccc(OC(F)(F)F)cc2)C(=O)N1C1CCCCC1 [Example 201, 3-cyclohexyl-2-imino-5,5-bis[4-(trifluoromethoxy)-phenyl]imidazolidin-4-one] | 55.1 nM | 2200 nM | 2200 nM | – | – | –
12 | COc1ccc(C2(c3ccc(OC)cc3)NC(=N)N(CC(C)(C)C)C2=O)cc1 [Example 252, 3-(2,2-dimethylpropyl)-2-imino-5,5-bis(4-methoxyphenyl)-imidazolidin-4-one] | 5.28 nM | 266 nM | – | – | – | –
13 | COc1ccc(C2(c3ccc(OC)c(OC)c3)NC(=N)N(C3CCCCC3)C2=O)cc1OC [Example 173, 3-cyclohexyl-5,5-bis(3,4-dimethoxy-phenyl)-2-imino-imidazolidin-4-one] | 54.7 nM | 614 nM | – | – | – | –
14 | COc1ccc(C2(c3ccc(OC)cc3)NC(=N)N(Cc3ccccc3C)C2=O)cc1 [Example 303, 2-imino-5,5-bis(4-methoxyphenyl)-3-[(2-methylphenyl)-methyl]imidazolidin-4-one] | 3.1 nM | 1010 nM | – | – | – | –
15 | COc1ccc(C2(c3ccc(OC)cc3)NC(=N)N(CC3CCCO3)C2=O)cc1 (centres unmarked) [Example 274, 2-imino-5,5-bis(4-methoxyphenyl)-3-(oxolan-2-ylmethyl)-imidazolidin-4-one] | 11.4 nM | 633 nM | – | – | – | –
16 | COc1ccc(C2(c3ccc(OC)cc3)NC(=N)N(C3CCCC3)C2=O)cc1 [Example 159, 3-cyclopentyl-2-imino-5,5-bis(4-methoxyphenyl)-imidazolidin-4-one] | 25.1 nM | 611 nM | – | – | – | 611 nM
17 | CN1C(=N)NC(c2ccccc2)(c2cccc(-c3cccnc3)c2)C1=O (centres unmarked) [Example 135, 2-imino-3-methyl-5-phenyl-5-[3-(pyridin-3-yl)phenyl]-imidazolidin-4-one] | – | – | – | 1010 nM | – | –
18 | COc1ccc(C2(c3cccc(-c4ccccn4)c3)NC(=N)N(C3CCCCC3)C2=O)cc1 (centres unmarked) [Example 210, 3-cyclohexyl-2-imino-5-(4-methoxyphenyl)-5-[3-(pyridin-2-yl)-phenyl]imidazolidin-4-one] | 5.47 nM | 1810 nM | 1810 nM | – | – | –
19 | COc1ccc(C2(c3ccc(OC)cc3)NC(=N)N(Cc3cccc(C)c3C)C2=O)cc1 [Example 277, 3-[(2,3-dimethyl-phenyl)methyl]-2-imino-5,5-bis(4-methoxyphenyl)-imidazolidin-4-one] | 4.39 nM | 1570 nM | – | – | – | –
20 | COc1ccc(C2(c3ccc(OC)cc3)NC(=N)N(C3CCC3)C2=O)cc1 [Example 204, 3-cyclobutyl-2-imino-5,5-bis(4-methoxyphenyl)-imidazolidin-4-one] | 67.4 nM | 722 nM | – | – | – | 722 nM
21 | COc1ccc(C2(c3cccc(-c4ccncc4)c3)NC(=N)N(C3CCCCC3)C2=O)cc1 (centres unmarked) [Example 172, 3-cyclohexyl-2-imino-5-(4-methoxyphenyl)-5-[3-(pyridin-4-yl)phenyl]-imidazolidin-4-one] | 9.64 nM | 533 nM | – | – | – | –
22 | N=C1NC(c2ccccc2)(c2ccccc2)C(=O)N1C1CC1 [Example 142, 3-cyclopropyl-2-imino-5,5-diphenylimidazolidin-4-one] | 1790 nM | 10800 nM | – | – | – | –
23 | COc1ccc(C2(c3ccc(OC)cc3)NC(=N)N(C3CCCCCC3)C2=O)cc1 [Example 220, 3-cycloheptyl-2-imino-5,5-bis(4-methoxyphenyl)-imidazolidin-4-one] | 2.37 nM | 427 nM | – | – | – | 427 nM
24 | COc1ccc(C2(c3ccc(OC)cc3)NC(=N)N(Cc3ccccc3)C2=O)cc1 [Example 162, 3-benzyl-2-imino-5,5-bis(4-methoxyphenyl)-imidazolidin-4-one] | 7.3 nM | 855 nM | – | – | – | 855 nM
25 | COc1cccc(C2(c3ccccc3)NC(=N)N(C3CCCCC3)C2=O)c1 (centres unmarked) [Example 153, 3-cyclohexyl-2-imino-5-(3-methoxyphenyl)-5-phenylimidazolidin-4-one] | 24.9 nM | 917 nM | 917 nM | – | – | –
26 | N=C1NC(c2ccccc2)(c2ccccc2)C(=O)N1Cc1ccccc1 [Example 102, 3-benzyl-2-imino-5,5-diphenyl-imidazolidin-4-one] | 33.1 nM | 8290 nM | – | – | – | 8290 nM
27 | COc1cccc(C2(c3cccc(OC)c3)NC(=N)N(C3CCCC3)C2=O)c1 [Example 168, 3-cyclopentyl-2-imino-5,5-bis(3-methoxyphenyl)-imidazolidin-4-one] | 110 nM | 1090 nM | – | – | – | –
28 | COc1cccc(C2(c3cccc(OC)c3)NC(=N)N(Cc3ccccc3)C2=O)c1 [Example 105, 3-benzyl-2-imino-5,5-bis(3-methoxy-phenyl)imidazolidin-4-one] | 57.4 nM | 6310 nM | – | – | – | –
